Laboratory results taken from PubChem BioAssay (NCI).
Several values for one entry are separate records, joined by “and”; a condition that tells them apart may be missing. Equal values may be shown once.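 How tested: cells in 96-well plates exposed to compound for 48 hours at five concentrations. TGI: total growth inhibition.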

Tests used:
Assay in all cases: NCI tumour cell line growth inhibition, 48 h
KM20L2 colon = test system: KM20L2 colon
DLD-1 colon = test system: DLD-1 colon
DMS 273 small cell lung = test system: DMS 273 small cell lung
RXF-631 renal = test system: RXF-631 renal
SNB-78 CNS = test system: SNB-78 CNS
M19-MEL melanoma = test system: M19-MEL melanoma
DMS 114 small cell lung = test system: DMS 114 small cell lung
XF 498 CNS = test system: XF 498 CNS
P388 leukemia = test system: P388 leukemia
SN12K1 renal = test system: SN12K1 renal
P388/ADR leukemia = test system: P388/ADR leukemia

With `C/C=C(/CCC1NCCc2c1[nH]c1ccccc21)[Si](C)(C)C` (stereo unspecified) the TGI (KM20L2 colon) was > 100 µM and 11.8 µM, the TGI (DLD-1 colon) was > 100 µM and 21.6 µM and the TGI (DMS 273 small cell lung) was > 100 µM and 13.5 µM. The TGI (RXF-631 renal) was > 100 µM and 22.9 µM, the TGI (SNB-78 CNS) was > 100 µM and 27 µM and the TGI (M19-MEL melanoma) was > 100 µM and 10.1 µM.
Compound `CCOc1ccc(OP2(=O)NC(=O)C=C(C)N2)cc1` (stereo unspecified) has a TGI (KM20L2 colon) of over 100 µM, a TGI (DLD-1 colon) of over 100 µM and a TGI (DMS 273 small cell lung) of over 100 µM. The TGI (RXF-631 renal) was over 100 µM, the TGI (DMS 114 small cell lung) was over 100 µM and the TGI (SNB-78 CNS) was over 100 µM. For the same compound, the TGI (XF 498 CNS) was over 100 µM and the TGI (M19-MEL melanoma) was over 100 µM.
Work on `COC(=O)N/N=c1\cc(C(=O)Nc2ccc(C)c(C)c2)oc2cc(O)ccc12` yielded a TGI (KM20L2 colon) of over 100 µM, a TGI (DLD-1 colon) of over 100 µM and a TGI (DMS 273 small cell lung) of over 100 µM. The TGI (RXF-631 renal) was over 100 µM, the TGI (DMS 114 small cell lung) was over 100 µM and the TGI (SNB-78 CNS) was over 100 µM. For the same compound, the TGI (XF 498 CNS) was over 100 µM and the TGI (M19-MEL melanoma) was over 100 µM.
`C/C=C1/C=CC2c3[nH]c4ccccc4c3CCN2C1` (stereo unspecified) showed a TGI (KM20L2 colon) of over 400 µM, a TGI (DLD-1 colon) of over 400 µM and a TGI (DMS 273 small cell lung) of over 400 µM. The TGI (RXF-631 renal) was over 400 µM, the TGI (DMS 114 small cell lung) was over 400 µM and the TGI (XF 498 CNS) was over 400 µM. It also gave a TGI (M19-MEL melanoma) of over 400 µM.
In the case of `O=S1(=O)C(=C(c2ccccc2)c2ccccc2)S(=O)(=O)c2ccccc21`, the TGI (KM20L2 colon) is reported as over 100 µM, the TGI (P388 leukemia) is reported as over 31.6 µM and the TGI (DLD-1 colon) is reported as over 100 µM. For the same compound, the TGI (SN12K1 renal) was 65.1 µM, the TGI (DMS 273 small cell lung) was over 100 µM and the TGI (DMS 114 small cell lung) was over 100 µM. For the same compound, the TGI (SNB-78 CNS) was 99.7 µM, the TGI (XF 498 CNS) was 62.4 µM and the TGI (M19-MEL melanoma) was over 100 µM. The TGI (P388/ADR leukemia) was over 100 µM.
`CCN(CC)c1ccc(Cl)c2c1C(O)(C(C)C)C2(C)C` (stereo unspecified) gave a TGI (KM20L2 colon) of 27.8 µM, a TGI (DLD-1 colon) of 31.4 µM and a TGI (DMS 273 small cell lung) of 29.5 µM. The TGI (DMS 114 small cell lung) was 36.5 µM, the TGI (SNB-78 CNS) was 69.4 µM and the TGI (M19-MEL melanoma) was 29.4 µM.
With `CC(=O)Nc1ccc2c(c1)C(=O)c1ccccc1-2` the TGI (KM20L2 colon) was over 100 µM, the TGI (DLD-1 colon) was over 100 µM and the TGI (DMS 273 small cell lung) was over 100 µM. The TGI (DMS 114 small cell lung) was over 100 µM, the TGI (SNB-78 CNS) was over 100 µM and the TGI (M19-MEL melanoma) was over 100 µM.
In the case of `COc1cc(Nc2nc3cc(C)ccc3nc2-c2ccccc2)cc(OC)c1OC`, the TGI (KM20L2 colon) is reported as over 100 µM, the TGI (DMS 273 small cell lung) is reported as 49.6 µM and the TGI (DMS 114 small cell lung) is reported as 31.5 µM. For the same compound, the TGI (XF 498 CNS) was 42.1 µM and the TGI (M19-MEL melanoma) was 71 µM.
